Test results as given in patent publication US20250092031A1, “RIPK3 INHIBITORS AND METHODS OF USE” (Momentum Therapeutics, Inc., priority 2023, published 2025).
pIC50: −log10 of the molar value.

Each compound was assayed on Murine L929 cells (assay: Necroptosis inhibition assay in L929 cells (mTNFα + zVAD, Sytox Green)). Settings: Mus musculus, 10 ng/ml mTNFα and 20 μM zVAD, 6 hours, Sytox Green fluorescence.
Format: cell-based
Method: Murine L929 cells (ATCC-CCL-1) were seeded at 10,000 cells/well in a 96-well plate. Cells were treated 48 hours after seeding with 10 ng/ml mTNFα (R&D Systems) and 20 μM zVAD (ChemShuttle) in the presence of different concentrations of compounds ranging from […] to 0.01 μM. Cells treated with 0.1% DMSO or cells treated with TNFα+zVAD were used as control and vehicle respectively.
Assay plates containing cells were incubated for 6 hours at 37° C. and 5% CO2. Necroptosis was assessed using Sytox Green Nucleic Acid Stain (Invitrogen). After incubation, 100 μL of Sytox dye at 2 μM (2×) diluted in HBSS 1× was added in each well and incubated for 15 min at room temperature. Fluorescence (500ex/530em) was recorded using the Cytation 5 microplate reader (Biotek).
Percentage of necroptosis inhibition was calculated as the percent compared to control and vehicle conditions which correspond to 100% and 0% respectively. The half-maximum necroptosis inhibition (IC50) levels were calculated using GraphPad Prism software and are shown in Table 3 (NT represents compound not tested).

`COc1ccc(-c2ccc3c(Nc4ccc(C5CCN(C)CC5)c(F)c4)ccnc3c2)cc1` [Compound 2, N-(3-fluoro-4-(1-methylpiperidin-4-yl)phenyl)-7-(4-methoxyphenyl)quinolin-4-amine] and `COc1ccc(-c2ccc3c(Nc4ccc(C5CCN(C)CC5)cn4)ccnc3c2)cc1` [Compound 7, 7-(4-methoxyphenyl)-N-(5-(1-methylpiperidin-4-yl)pyridin-2-yl)quinolin-4-amine] cannot be ordered by pIC50: under 5.00 for the first, under 5.00 for the second.

`CN1CCC(c2ccc(Nc3ccnc4cc(-c5ccccc5F)ccc34)nc2)CC1` [Compound 3, 7-(2-fluorophenyl)-N-(5-(1-methylpiperidin-4-yl)pyridin-2-yl)quinolin-4-amine] and `CN1CCC(c2ccc(Nc3ccnc4cc(-c5ccccn5)ccc34)nc2)CC1` [Compound 8, N-(5-(1-methylpiperidin-4-yl)pyridin-2-yl)-7-(pyridin-2-yl)quinolin-4-amine] cannot be ordered by pIC50: under 5.00 for the first, under 5.00 for the second.

`CN1CCC(c2ccc(Nc3ccc4nccc(Nc5ccc6scnc6c5)c4c3)cc2F)CC1` [Compound 4, N4-(benzo[d]thiazol-5-yl)-N6-(3-fluoro-4-(1-methylpiperidin-4-yl)phenyl)quinoline-4,6-diamine] and `CN1CCC(c2ccc(Nc3ccc4nccc(Nc5ccc6scnc6c5)c4c3)nc2)CC1` [Compound 9, N4-(benzo[d]thiazol-5-yl)-N6-(5-(1-methylpiperidin-4-yl)pyridin-2-yl)quinoline-4,6-diamine] cannot be ordered by pIC50: under 5.00 for the first, under 5.00 for the second.

`CN1CCC(c2ccc(Nc3ccnc4cc(-c5ccccc5F)ccc34)cc2F)CC1` [Compound 5, N-(3-fluoro-4-(1-methylpiperidin-4-yl)phenyl)-7-(2-fluorophenyl)quinolin-4-amine] and `CN1CCC(c2ccc(Nc3ccnc4cc(-c5ccccn5)ccc34)cc2F)CC1` [Compound 6, N-(3-fluoro-4-(1-methylpiperidin-4-yl)phenyl)-7-(pyridin-2-yl)quinolin-4-amine] cannot be ordered by pIC50: under 5.00 for the first, under 5.00 for the second.

`Cc1ccc(Oc2ccnc3cc(-c4ccc(CN5CCN(C)CC5)c(F)c4)ccc23)cc1` [Compound 10, 7-(3-fluoro-4-((4-methylpiperazin-1-yl)methyl)phenyl)-4-(p-tolyloxy)quinoline] and `COc1ccc(Nc2ccnc3ccc(-c4ccc(CN5CCN(C)CC5)cc4F)cc23)cc1OC` [Compound 32, N-(3,4-dimethoxyphenyl)-6-(2-fluoro-4-((4-methylpiperazin-1-yl)methyl)phenyl)quinolin-4-amine] cannot be ordered by pIC50: under 5.00 for the first, under 5.00 for the second.

Going from `c1cc(Nc2ccc3scnc3c2)c2cc(-c3ccc(N4CCOCC4)cc3)ccc2n1` [Compound 18, N-(6-(4-morpholinophenyl)quinolin-4-yl)benzo[d]thiazol-5-amine] to `c1cc(Nc2ccc3scnc3c2)c2cc(-c3ccc(N4CCCC4)cc3)ccc2n1` [Compound 30, N-(6-(4-(pyrrolidin-1-yl)phenyl)quinolin-4-yl)benzo[d]thiazol-5-amine], the pIC50 falls from over 5.00 to under 5.00.

Going from `COc1ccc(Nc2ccnc3ccc(-c4ccc(N5CCN(C)CC5)cc4)cc23)cc1OC` [Compound 19, N-(3,4-dimethoxyphenyl)-6-(4-(4-methylpiperazin-1-yl)phenyl)quinolin-4-amine] to `CN1CCN(c2ccc(-c3ccc4nccc(Nc5ccc(Cl)c(Cl)c5)c4c3)cc2)CC1` [Compound 20, N-(3,4-dichlorophenyl)-6-(4-(4-methylpiperazin-1-yl)phenyl)quinolin-4-amine], the pIC50 rises from under 5.00 to over 5.00.

First: CN1CCN(c2ccc(-c3ccc4nccc(Nc5ccc6scnc6c5)c4c3)cn2)CC1 [Compound 24, N-(6-(6-(4-methylpiperazin-1-yl)pyridin-3-yl)quinolin-4-yl)benzo[d]thiazol-5-amine]
Second: c1cc(Nc2ccc3scnc3c2)c2cc(-c3ccc(N4CCCCC4)nc3)ccc2n1 [Compound 25, N-(6-(6-(piperidin-1-yl)pyridin-3-yl)quinolin-4-yl)benzo[d]thiazol-5-amine]
The pIC50 of the first is higher: over 5.00 for the first, under 5.00 for the second. The first is the more potent here.

Going from `Nc1nc2cc(Nc3ccnc4ccc(-c5ccc(CN6CCCC6)cc5F)cc34)ccc2s1` [Compound 26, N5-(6-(2-fluoro-4-(pyrrolidin-1-ylmethyl)phenyl)quinolin-4-yl)benzo[d]thiazole-2,5-diamine] to `Fc1ccc(CN2CCCCC2)cc1-c1ccc2nccc(Nc3ccc4scnc4c3)c2c1` [Compound 55, N-(6-(2-fluoro-5-(piperidin-1-ylmethyl)phenyl)quinolin-4-yl)benzo[d]thiazol-5-amine], the pIC50 rises from under 5.00 to over 5.00. The second is the more potent here.

`CN1CCN(Cc2ccc(-c3ccc4nccc(Nc5ccc(Cl)c(F)c5)c4c3)c(F)c2)CC1` [Compound 33, N-(4-chloro-3-fluorophenyl)-6-(2-fluoro-4-((4-methylpiperazin-1-yl)methyl)phenyl)quinolin-4-amine] and `CC(C)(C)OC(=O)N1CCN(Cc2ccc(-c3ccc4nccc(Nc5ccc6scnc6c5)c4c3)c(F)c2)CC1` [Compound 38, tert-butyl 4-(4-(4-(benzo[d]thiazol-5-ylamino)quinolin-6-yl)-3-fluorobenzyl)piperazine-1-carboxylate] cannot be ordered by pIC50: over 5.00 for the first, over 5.00 for the second.

Going from `N#Cc1cc(-c2ccc3nccc(Nc4ccc5scnc5c4)c3c2)ccc1N1CCCC1` [Compound 39, 5-(4-(benzo[d]thiazol-5-ylamino)quinolin-6-yl)-2-(pyrrolidin-1-yl)benzonitrile] to `O=C(c1ccc(-c2ccc3nccc(Nc4ccc5scnc5c4)c3c2)c(F)c1)N1CCCC1` [Compound 241, (4-(4-(benzo[d]thiazol-5-ylamino)quinolin-6-yl)-3-fluorophenyl)(pyrrolidin-1-yl)methanone], the pIC50 rises from under 5.00 to 6.41.

Compared with `Fc1cc(CN2CCC(C(F)(F)F)CC2)ccc1-c1ccc2nccc(Nc3ccc4scnc4c3)c2c1` [Compound 42, N-(6-(2-fluoro-4-((4-(trifluoromethyl)piperidin-1-yl)methyl)phenyl)quinolin-4-yl)benzo[d]thiazol-5-amine], `Fc1ccc(CN2CCCCC2)cc1-c1ccc2c(Nc3ccc4scnc4c3)ccnc2c1` [Compound 56, N-(7-(2-fluoro-5-(piperidin-1-ylmethyl)phenyl)quinolin-4-yl)benzo[d]thiazol-5-amine] is lower in pIC50: over 5.00 for the first, under 5.00 for the second.

`c1cc(Nc2ccc3scnc3c2)c2cc(-c3ccc(OCCN4CCCCC4)cc3)ccc2n1` [Compound 44, N-(6-(4-(2-(piperidin-1-yl)ethoxy)phenyl)quinolin-4-yl)benzo[d]thiazol-5-amine] and `O=C(CO)N1CCC(c2ccc(-c3ccc4nccc(Nc5ccc6scnc6c5)c4c3)cc2)CC1` [Compound 239, 1-(4-(4-(4-(benzo[d]thiazol-5-ylamino)quinolin-6-yl)phenyl)piperidin-1-yl)-2-hydroxyethan-1-one] cannot be ordered by pIC50: over 5.00 for the first, over 6.00 for the second.

Going from `CC(C)(C)OC(=O)N1C2CCC1CN(Cc1ccc(-c3ccc4nccc(Nc5ccc6scnc6c5)c4c3)c(F)c1)C2` [Compound 57, tert-butyl 3-(4-(4-(benzo[d]thiazol-5-ylamino)quinolin-6-yl)-3-fluorobenzyl)-3,8-diazabicyclo[3.2.1]octane-8-carboxylate] to `CC(C)(C)OC(=O)N1C2CCC1CN(Cc1ccc(-c3ccc4c(Nc5ccc6scnc6c5)ccnc4c3)c(F)c1)C2` [Compound 58, tert-butyl 3-(4-(4-(benzo[d]thiazol-5-ylamino)quinolin-7-yl)-3-fluorobenzyl)-3,8-diazabicyclo[3.2.1]octane-8-carboxylate], the pIC50 rises from under 5.00 to over 5.00. The second is the more potent here.

`c1cc(Nc2ccc3scnc3c2)c2cc(-c3ccc(C4CCNCC4)cc3)ccc2n1` [Compound 240, N-(6-(4-(piperidin-4-yl)phenyl)quinolin-4-yl)benzo[d]thiazol-5-amine] and `CC1CCCCN1C(=O)c1ccc(-c2ccc3nccc(Nc4ccc5scnc5c4)c3c2)c(F)c1` (stereo not drawn) [Compound 247, (4-(4-(benzo[d]thiazol-5-ylamino)quinolin-6-yl)-3-fluorophenyl)(2-methylpiperidin-1-yl)methanone] cannot be ordered by pIC50: under 6.00 for the first, under 6.00 for the second.

`O=C(c1ccc(-c2ccc3c(Nc4ccc5scnc5c4)ccnc3c2)c(F)c1)N1CCCC1` [Compound 242, (4-(4-(benzo[d]thiazol-5-ylamino)quinolin-7-yl)-3-fluorophenyl)(pyrrolidin-1-yl)methanone] and `CC1CCCCN1C(=O)c1ccc(-c2ccc3c(Nc4ccc5scnc5c4)ccnc3c2)c(F)c1` (stereo not drawn) [Compound 248, (4-(4-(benzo[d]thiazol-5-ylamino)quinolin-7-yl)-3-fluorophenyl)(2-methylpiperidin-1-yl)methanone] cannot be ordered by pIC50: over 6.00 for the first, over 6.00 for the second.

`O=C(c1ccc(-c2ccc3nccc(Nc4ccc5scnc5c4)c3c2)c(F)c1)N1CCOCC1` [Compound 243, (4-(4-(benzo[d]thiazol-5-ylamino)quinolin-6-yl)-3-fluorophenyl)(morpholino)methanone] and `CN(C)C(=O)c1ccc(-c2ccc3nccc(Nc4ccc5scnc5c4)c3c2)c(F)c1` [Compound 245, 4-(4-(benzo[d]thiazol-5-ylamino)quinolin-6-yl)-3-fluoro-N,N-dimethylbenzamide] cannot be ordered by pIC50: over 6.00 for the first, over 6.00 for the second.

First: CN(C)C(=O)c1ccc(-c2ccc3c(Nc4ccc5scnc5c4)ccnc3c2)c(F)c1 [Compound 246, 4-(4-(benzo[d]thiazol-5-ylamino)quinolin-7-yl)-3-fluoro-N,N-dimethylbenzamide]
Second: O=C1CN(Cc2ccc(-c3ccc4nccc(Nc5ccc6sccc6c5)c4c3)c(F)c2)CCN1 [Compound 256, 4-(4-(4-(benzo[b]thiophen-5-ylamino)quinolin-6-yl)-3-fluorobenzyl)piperazin-2-one]
The pIC50 of the first is higher: over 6.00 for the first, under 5.00 for the second. The first is the more potent here.
